Laboratory results: PMC3794980, “Identification of Conserved and HLA Promiscuous DENV3 T-Cell Epitopes” (PLoS Neglected Tropical Diseases, 2013)

Key:
Test in all cases: biochemical
Type in all cases: binding
DRB3*0101 = DRB3*0101 (Homo sapiens, UniProt P01903+P79483)
DRB4*0101 = DRB4*0101 (Homo sapiens, UniProt P01903+P13762, G164S)
DRB5*0101 = DRB5*0101 (Homo sapiens, UniProt P01903+Q30154)

SMILES | IC50 (DRB3*0101) [nM] | IC50 (DRB4*0101) [nM] | IC50 (DRB5*0101) [nM]
CC[C@H](C)[C@H](NC(=O)CNC(=O)[C@@H](NC(=O)[C@@H](NC(=O)[C@@H](NC(=O)[C@H](CC(N)=O)NC(=O)[C@H](CO)NC(=O)[C@H](CCC(=O)O)NC(=O)CNC(=O)[C@H](Cc1ccccc1)NC(=O)[C@@H]1CCCN1C(=O)[C@@H]1CCCN1C(=O)[C@H](CCC(=O)O)NC(=O)[C@H](C)NC(=O)[C@@H](N)CCC(=O)O)[C@@H](C)CC)C(C)C)[C@@H](C)CC)C(=O)O [Envelope 366-380] | 3240 | 3810 | 12500
CC[C@H](C)[C@H](N)C(=O)N[C@H](C(=O)N[C@H](C(=O)NCC(=O)N[C@H](C(=O)NCC(=O)N[C@@H](CC(=O)O)C(=O)N[C@@H](CC(N)=O)C(=O)N[C@@H](C)C(=O)N[C@@H](CC(C)C)C(=O)N[C@@H](CCCCN)C(=O)N[C@H](C(=O)N[C@@H](CC(N)=O)C(=O)N[C@@H](Cc1c[nH]c2ccccc12)C(=O)N[C@@H](Cc1ccc(O)cc1)C(=O)O)[C@@H](C)CC)[C@@H](C)CC)[C@@H](C)CC)C(C)C [Envelope 376-390] | 15 | 1240 | 1250
CC[C@H](C)[C@H](N)C(=O)NCC(=O)N[C@@H](CCCCN)C(=O)N[C@@H](CCSC)C(=O)N[C@@H](Cc1ccccc1)C(=O)N[C@@H](CCC(=O)O)C(=O)N[C@@H](C)C(=O)N[C@H](C(=O)N[C@@H](C)C(=O)N[C@@H](CCCNC(=N)N)C(=O)NCC(=O)N[C@@H](C)C(=O)N[C@@H](CCCNC(=N)N)C(=O)N[C@@H](CCCNC(=N)N)C(=O)N[C@@H](CCSC)C(=O)O)[C@@H](C)O [Envelope 396-410] | 424 | 3610 | 27
CC(C)C[C@H](NC(=O)[C@H](CCCNC(=N)N)NC(=O)[C@H](CCCCN)NC(=O)[C@@H]1CCCN1C(=O)[C@H](CO)NC(=O)[C@H](CC(=O)O)NC(=O)[C@H](C)NC(=O)[C@H](CCC(N)=O)NC(=O)[C@H](Cc1ccccc1)NC(=O)[C@H](CCCCN)NC(=O)[C@H](Cc1ccc(O)cc1)NC(=O)[C@H](CCC(N)=O)NC(=O)[C@H](CCC(=O)O)NC(=O)[C@@H](N)[C@@H](C)O)C(=O)N[C@@H](C)C(=O)O [NS1 29-43] | 11 | 14400 | 23
CC[C@H](C)[C@H](NC(=O)[C@H](CCC(N)=O)NC(=O)[C@@H](N)CCCCN)C(=O)N[C@@H](C)C(=O)N[C@@H](CC(N)=O)C(=O)N[C@@H](CCC(=O)O)C(=O)N[C@@H](CC(C)C)C(=O)N[C@@H](CC(N)=O)C(=O)N[C@@H](Cc1ccc(O)cc1)C(=O)N[C@H](C(=O)N[C@@H](CC(C)C)C(=O)N[C@@H](Cc1c[nH]c2ccccc12)C(=O)N[C@@H](CCC(=O)O)C(=O)N[C@@H](CC(N)=O)C(=O)N[C@@H](CC(N)=O)C(=O)O)[C@@H](C)CC [NS1 69-83] | 50 | 608 | 2380
CC[C@H](C)[C@H](N)C(=O)N[C@H](C(=O)NCC(=O)N[C@H](C(=O)N[C@@H](CC(C)C)C(=O)N[C@@H](CCC(=O)O)C(=O)N[C@@H](CCC(N)=O)C(=O)NCC(=O)N[C@@H](CCCCN)C(=O)N[C@@H](CCCNC(=N)N)C(=O)N[C@H](C(=O)N[C@@H](CC(C)C)C(=O)N[C@H](C(=O)N1CCC[C@H]1C(=O)N[C@@H](CCC(N)=O)C(=O)O)[C@@H](C)O)[C@@H](C)O)C(C)C)[C@@H](C)CC [NS1 93-107] | 4350 | 3700 | 3070
CC[C@H](C)[C@H](NC(=O)[C@H](CCSC)NC(=O)[C@H](CC(=O)O)NC(=O)[C@H](CO)NC(=O)[C@H](CCC(=O)O)NC(=O)[C@H](CC(C)C)NC(=O)[C@@H](NC(=O)CNC(=O)[C@H](CC(N)=O)NC(=O)[C@@H](N)CO)C(C)C)C(=O)N[C@H](C(=O)N1CCC[C@H]1C(=O)N[C@@H](CCCCN)C(=O)N[C@@H](CO)C(=O)N[C@@H](CC(C)C)C(=O)O)[C@@H](C)CC [NS1 233-247] | 159 | 3870 | 4070
CC(C)C[C@H](NC(=O)[C@H](CCCCN)NC(=O)CNC(=O)[C@H](CC(C)C)NC(=O)[C@@H](N)Cc1c[nH]cn1)C(=O)N[C@@H](CCC(=O)O)C(=O)N[C@@H](CC(C)C)C(=O)N[C@@H](CC(=O)O)C(=O)N[C@@H](Cc1ccccc1)C(=O)N[C@@H](CC(N)=O)C(=O)N[C@@H](Cc1ccc(O)cc1)C(=O)N[C@@H](CS)C(=O)N[C@@H](CCC(=O)O)C(=O)NCC(=O)N[C@H](C(=O)O)[C@@H](C)O [NS1 269-283] | 71 | 85 | 9470
CC(C)C[C@H](NC(=O)[C@H](CCCCN)NC(=O)CNC(=O)[C@H](CO)NC(=O)[C@@H](NC(=O)[C@@H](NC(=O)[C@@H](NC(=O)[C@@H](NC(=O)[C@H](CCCNC(=N)N)NC(=O)[C@H](CC(C)C)NC(=O)[C@H](CO)NC(=O)[C@@H]1CCCN1C(=O)CNC(=O)[C@H](CCCNC(=N)N)NC(=O)[C@@H](N)[C@@H](C)O)[C@@H](C)O)[C@@H](C)O)[C@@H](C)O)C(C)C)C(=O)O [NS1 293-307] | 2280 | 793 | 2610
CC[C@H](C)[C@H](NC(=O)[C@H](CC(C)C)NC(=O)[C@H](CCCCN)NC(=O)CNC(=O)[C@H](CO)NC(=O)[C@@H](NC(=O)[C@@H](NC(=O)[C@@H](NC(=O)[C@@H](NC(=O)[C@H](CCCNC(=N)N)NC(=O)[C@H](CC(C)C)NC(=O)[C@@H](N)CO)[C@@H](C)O)[C@@H](C)O)[C@@H](C)O)C(C)C)C(=O)N[C@@H](Cc1c[nH]cn1)C(=O)N[C@@H](CCC(=O)O)C(=O)N[C@@H](Cc1c[nH]c2ccccc12)C(=O)O [NS1 297-311] | 12400 | 5310 | 2110
CC(C)C[C@H](NC(=O)[C@H](CCCNC(=N)N)NC(=O)[C@H](CCCCN)NC(=O)CNC(=O)[C@@H](N)CC(N)=O)C(=O)N[C@@H](CCC(=O)O)C(=O)N1CCC[C@H]1C(=O)N[C@@H](CC(N)=O)C(=O)N[C@@H](Cc1c[nH]c2ccccc12)C(=O)N[C@@H](C)C(=O)N[C@@H](CO)C(=O)N[C@H](C(=O)N[C@@H](CCCCN)C(=O)N[C@@H](CCCCN)C(=O)N[C@@H](CC(=O)O)C(=O)O)C(C)C [NS3 61-75] | 1200 | 7030 | 143
CC[C@H](C)[C@H](NC(=O)[C@H](C)NC(=O)CNC(=O)[C@@H](NC(=O)[C@H](CCC(=O)O)NC(=O)CNC(=O)[C@@H](NC(=O)[C@@H](NC(=O)[C@@H](NC(=O)[C@H](CCC(N)=O)NC(=O)[C@H](Cc1ccccc1)NC(=O)[C@@H](NC(=O)CNC(=O)[C@@H]1CCCN1)[C@@H](C)O)[C@@H](C)O)[C@@H](C)O)[C@@H](C)O)[C@@H](C)CC)C(=O)N[C@@H](C)C(=O)O [NS3 113-127] | 3070 | 1840 | 2100
CC[C@H](C)[C@H](NC(=O)[C@H](C)NC(=O)CNC(=O)[C@@H](NC(=O)[C@H](CCC(=O)O)NC(=O)CN)[C@@H](C)CC)C(=O)N[C@@H](C)C(=O)N[C@@H](CC(C)C)C(=O)N[C@@H](CC(=O)O)C(=O)N[C@@H](Cc1ccccc1)C(=O)N[C@@H](CCCCN)C(=O)N1CCC[C@H]1C(=O)NCC(=O)N[C@H](C(=O)N[C@@H](CO)C(=O)O)[C@@H](C)O [NS3 121-135] | 2210 | 40 | 11900
CC[C@H](C)[C@H](NC(=O)[C@H](Cc1ccc(O)cc1)NC(=O)CNC(=O)[C@H](CCCNC(=N)N)NC(=O)[C@H](C)N)C(=O)N[C@@H](CO)C(=O)N[C@H](C(=O)N[C@@H](CCCNC(=N)N)C(=O)N[C@H](C(=O)NCC(=O)N[C@@H](CCSC)C(=O)NCC(=O)N[C@@H](CCC(=O)O)C(=O)N[C@@H](C)C(=O)N[C@@H](C)C(=O)O)C(C)C)[C@@H](C)O [NS3 297-311] | 8650 | 7230 | 3450
CC[C@H](C)[C@H](NC(=O)[C@@H](NC(=O)[C@H](CCCCN)NC(=O)[C@H](CCCCN)NC(=O)CNC(=O)[C@H](CC(N)=O)NC(=O)[C@H](CCCCN)NC(=O)[C@H](CCCNC(=N)N)NC(=O)[C@H](CC(C)C)NC(=O)[C@H](CS)NC(=O)[C@H](CC(N)=O)NC(=O)[C@H](C)N)C(C)C)C(=O)N[C@@H](CCC(N)=O)C(=O)N[C@@H](CC(C)C)C(=O)N[C@@H](CO)C(=O)O [NS3 373-387] | 3430 | 1630 | 3540
CC(C)C[C@H](NC(=O)[C@H](CCCCN)NC(=O)[C@@H](NC(=O)[C@H](CCCCN)NC(=O)[C@H](CCC(N)=O)NC(=O)[C@H](Cc1ccc(O)cc1)NC(=O)[C@H](CCC(=O)O)NC(=O)[C@@H](NC(=O)[C@H](CC(=O)O)NC(=O)[C@H](Cc1ccccc1)NC(=O)[C@@H](NC(=O)[C@@H](N)CCCCN)[C@@H](C)O)[C@@H](C)O)[C@@H](C)O)C(=O)N[C@@H](CC(N)=O)C(=O)N[C@@H](CC(=O)O)C(=O)N[C@@H](Cc1c[nH]c2ccccc12)C(=O)O [NS3 389-403] | 4530 | 9910 | 2330
CC[C@H](C)[C@H](NC(=O)[C@@H](NC(=O)[C@H](CCCNC(=N)N)NC(=O)[C@H](CCC(=O)O)NC(=O)[C@@H]1CCCN1C(=O)CNC(=O)[C@H](CC(=O)O)NC(=O)[C@@H](NC(=O)[C@H](CC(C)C)NC(=O)[C@@H](NC(=O)[C@@H](NC(=O)[C@@H]1CCCN1C(=O)[C@H](CCCCN)NC(=O)[C@H](CC(C)C)NC(=O)[C@@H](N)CS)C(C)C)[C@@H](C)CC)[C@@H](C)O)C(C)C)C(=O)O [NS3 429-443] | 5.7 | 1210 | 13200
CC[C@H](C)[C@H](NC(=O)[C@@H](N)C(C)C)C(=O)N[C@@H](CC(C)C)C(=O)N[C@H](C(=O)N[C@@H](CC(=O)O)C(=O)NCC(=O)N1CCC[C@H]1C(=O)N[C@@H](CCC(=O)O)C(=O)N[C@@H](CCCNC(=N)N)C(=O)N[C@H](C(=O)N[C@H](C(=O)N[C@@H](CC(C)C)C(=O)N[C@@H](C)C(=O)NCC(=O)N1CCC[C@H]1C(=O)O)[C@@H](C)CC)C(C)C)[C@@H](C)O [NS3 433-447] | 134 | 3510 | 8290
CC[C@H](C)[C@H](NC(=O)[C@H](CC(C)C)NC(=O)[C@H](CCC(=O)O)NC(=O)[C@@H](N)Cc1c[nH]cn1)C(=O)N[C@@H](CCSC)C(=O)N[C@@H](CCCCN)C(=O)N[C@@H](CC(=O)O)C(=O)NCC(=O)N[C@@H](CCCNC(=N)N)C(=O)N[C@@H](CCCCN)C(=O)N[C@@H](CC(C)C)C(=O)N[C@H](C(=O)N[C@H](C(=O)N1CCC[C@H]1C(=O)N[C@@H](CS)C(=O)N[C@@H](CCCNC(=N)N)C(=O)O)C(C)C)C(C)C [NS5 714-729] | – | 4020 | 245
